From ChEMBL document CHEMBL1201862, “PubChem BioAssay data set” (2004)
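Method: 48-hour compound exposure of cells in 96-well plates, five concentrations, linear interpolation of endpoints. At the GI50, growth is halved.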 The source made the active and inactive calls. Rule as the data show it: active = GI50 up to about 1.1 µM and inactive = higher.

How the values were obtained:
Experiment in all cases: NCI tumour cell line growth inhibition, 48 h
UACC-257 = test system: UACC-257
HCC 2998 = test system: HCC 2998
OVCAR-8 = test system: OVCAR-8
OVCAR-4 = test system: OVCAR-4
SK-OV-3 = test system: SK-OV-3
RPMI-8226 = test system: RPMI-8226
UACC-62 = test system: UACC-62
HOP-62 = test system: HOP-62
HOP-92 = test system: HOP-92
SR = test system: SR
SK-MEL-2 = test system: SK-MEL-2
HCT-116 = test system: HCT-116
NCI-H460 = test system: NCI-H460

Measured: GI50

O=C(CCc1nnc2s/c(=C\c3ccc(Cl)cc3Cl)c(=O)n12)Nc1cc(Cl)c(Cl)cc1Cl
inactive: UACC-257 > 10 µM | HCC 2998 > 100 µM | OVCAR-8 > 10 µM | OVCAR-4 > 10 µM | SK-OV-3 > 10 µM | RPMI-8226 > 10 µM | UACC-62 > 10 µM | HOP-62 > 10 µM | HOP-92 24 µM | SR > 10 µM | SK-MEL-2 > 10 µM | HCT-116 > 10 µM | NCI-H460 > 10 µM

CCOC(=O)CNC(SC)=C(C#N)C#N
inactive: UACC-257 > 100 µM | HCC 2998 > 100 µM | OVCAR-8 > 100 µM | OVCAR-4 > 100 µM | SK-OV-3 > 100 µM | RPMI-8226 > 100 µM | UACC-62 > 100 µM | HOP-62 > 100 µM | HOP-92 > 100 µM | SR > 100 µM | HCT-116 > 100 µM | NCI-H460 > 100 µM

CCOC(=O)NNC(=O)NC12CC3CC(CC(C3)C1)C2
inactive: UACC-257 > 100 µM | HCC 2998 > 100 µM | OVCAR-8 > 100 µM | OVCAR-4 > 100 µM | SK-OV-3 > 100 µM | UACC-62 > 100 µM | HOP-62 > 100 µM | HOP-92 > 100 µM | SK-MEL-2 > 100 µM | HCT-116 > 100 µM | NCI-H460 > 100 µM

CCOC(=O)C(C(=O)OCC)=c1sc(=C(C(=O)OCC)C(=O)OCC)s1
inactive: UACC-257 > 100 µM | HCC 2998 > 100 µM | OVCAR-8 > 100 µM | OVCAR-4 > 100 µM | SK-OV-3 > 100 µM | RPMI-8226 > 100 µM | UACC-62 > 100 µM | HOP-62 > 100 µM | HOP-92 > 100 µM | SK-MEL-2 > 100 µM | NCI-H460 > 100 µM

Cc1[nH]c2c(C)cccc2c1C1Cc2ccccc2N1 (stereo not given)
inactive: UACC-257 22.3 µM | OVCAR-8 19.5 µM | SK-OV-3 36.5 µM | RPMI-8226 22.9 µM | UACC-62 18.6 µM | HOP-62 16.4 µM | SR 20.7 µM | SK-MEL-2 28.8 µM | HCT-116 17 µM | NCI-H460 25.1 µM
active: HOP-92 0.0214 µM

O=C(CSc1nnc(Cc2ccccc2)o1)Nc1ccc(Cl)cc1[N+](=O)[O-]
inactive: UACC-257 19.9 µM | OVCAR-8 29.8 µM | OVCAR-4 18.8 µM | SK-OV-3 34.5 µM | RPMI-8226 17.9 µM | UACC-62 14.2 µM | HOP-62 17.4 µM | SR 26.2 µM | SK-MEL-2 15.9 µM | HCT-116 14 µM | NCI-H460 > 10 µM

CC(=O)OCc1c(O)nc2c(c1O)-c1ccccc1CC2
inactive: UACC-257 81.3 µM | HCC 2998 80.9 µM | OVCAR-8 101 µM | SK-OV-3 194 µM | RPMI-8226 38.5 µM | UACC-62 50.5 µM | HOP-62 131 µM | HOP-92 78.5 µM | SR 95.1 µM | SK-MEL-2 > 35 µM | HCT-116 58.2 µM | NCI-H460 77.8 µM

COc1ccc(NC(=O)c2oc3cc(O)ccc3c(=O)c2C)c([N+](=O)[O-])c1
inactive: UACC-257 > 100 µM | HCC 2998 > 100 µM | OVCAR-8 > 100 µM | OVCAR-4 > 100 µM | SK-OV-3 > 100 µM | UACC-62 > 100 µM | HOP-62 > 100 µM | HOP-92 > 100 µM | SR > 100 µM | SK-MEL-2 > 100 µM | HCT-116 > 100 µM | NCI-H460 > 100 µM

CC(=O)Nc1ccc(C2[C@H]3C(=O)N(c4ccc(Cc5ccc(N6C(=O)[C@@H]7ON(c8ccccc8)C(c8ccc(NC(C)=O)cc8)[C@@H]7C6=O)cc5)cc4)C(=O)[C@H]3ON2c2ccccc2)cc1 (stereo not given in full)
inactive: UACC-257 > 100 µM | HCC 2998 > 100 µM | OVCAR-8 > 100 µM | OVCAR-4 > 100 µM | SK-OV-3 > 100 µM | RPMI-8226 > 100 µM | UACC-62 70.8 µM | HOP-62 > 100 µM | SR > 100 µM | SK-MEL-2 > 100 µM | HCT-116 > 100 µM | NCI-H460 > 100 µM

COCC1N=C(c2cc(OC)c(OC)c(OC)c2-c2cc3c(cc2C2OCCCO2)OCO3)O[C@H]1c1ccccc1 (stereo not given in full)
inactive: UACC-257 > 100 µM | HCC 2998 > 100 µM | OVCAR-8 > 100 µM | OVCAR-4 > 100 µM | SK-OV-3 > 100 µM | RPMI-8226 > 100 µM | UACC-62 > 100 µM | HOP-62 > 100 µM | HOP-92 > 100 µM | SK-MEL-2 > 100 µM | HCT-116 > 100 µM | NCI-H460 > 100 µM

COc1cc(/C=C2\CCc3ccccc3C2=O)cc(OC)c1OC
inactive: UACC-257 14.3 µM | HCC 2998 18 µM | OVCAR-8 16.2 µM | OVCAR-4 23.9 µM | SK-OV-3 18.6 µM | RPMI-8226 3.92 µM | UACC-62 14.3 µM | HOP-62 21.5 µM | HOP-92 11.1 µM | SR 3.86 µM | SK-MEL-2 15.8 µM | HCT-116 14.1 µM | NCI-H460 16.9 µM
